Assay results: patent US8106055B2, “Substituted amide compounds” (Gruenenthal GmbH, priority 2007, dated 2012)
Read-outs that look alike come from different tables or passages of the source.

Columns and labels:
[1] = target: T1, human bradykinin 1 receptor (B1R) (Homo sapiens, UniProt P46663); assay: Functional investigation on the human bradykinin 1 receptor (B1R), Ca2+ FLIPR assay in CHO K1 hB1R cells; type: cell-based
T1 construct: expressed in transfected cells; host or cells: CHO K1 cells
T1 sequence (P46663 1-353): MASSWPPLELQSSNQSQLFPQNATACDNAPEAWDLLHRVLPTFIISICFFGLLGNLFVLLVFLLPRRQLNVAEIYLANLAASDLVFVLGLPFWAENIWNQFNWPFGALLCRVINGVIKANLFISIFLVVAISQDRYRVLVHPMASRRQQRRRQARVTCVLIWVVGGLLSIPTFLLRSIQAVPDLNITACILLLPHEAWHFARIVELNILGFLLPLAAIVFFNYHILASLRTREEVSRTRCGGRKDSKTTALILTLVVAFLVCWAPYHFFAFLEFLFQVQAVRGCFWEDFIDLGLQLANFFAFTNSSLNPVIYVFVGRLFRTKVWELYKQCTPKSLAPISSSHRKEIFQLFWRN
How it was run: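 Fluo-4 Ca2+ readout, peak fluorescence. Stable CHO K1 transfectants; compound pre-incubated 10-20 min, then EC80 agonist—Lys-Des-Arg9-BK for hB1R, Des-Arg9-BK for rB1R. % inhibition vs maximal inhibition; IC50 from multiple concentrations, duplicate/triplicate, ≥2 independent runs.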

[2] = target: T2, serotonin (5-HT) reuptake (Rattus norvegicus, UniProt P31652); assay: Inhibition of serotonin (5HT) reuptake in synaptosomes from rat brain; type: biochemical; conditions: test concentration of 10 μM; read-out: 5-HT (inhibition of reuptake of serotonin, % inhibition)
T2 construct: synaptosomes are freshly isolated from areas of the rat brain; from tissue; host or cells: rat brain synaptosomes (P2 fraction)
T2 sequence (P31652 whole entry): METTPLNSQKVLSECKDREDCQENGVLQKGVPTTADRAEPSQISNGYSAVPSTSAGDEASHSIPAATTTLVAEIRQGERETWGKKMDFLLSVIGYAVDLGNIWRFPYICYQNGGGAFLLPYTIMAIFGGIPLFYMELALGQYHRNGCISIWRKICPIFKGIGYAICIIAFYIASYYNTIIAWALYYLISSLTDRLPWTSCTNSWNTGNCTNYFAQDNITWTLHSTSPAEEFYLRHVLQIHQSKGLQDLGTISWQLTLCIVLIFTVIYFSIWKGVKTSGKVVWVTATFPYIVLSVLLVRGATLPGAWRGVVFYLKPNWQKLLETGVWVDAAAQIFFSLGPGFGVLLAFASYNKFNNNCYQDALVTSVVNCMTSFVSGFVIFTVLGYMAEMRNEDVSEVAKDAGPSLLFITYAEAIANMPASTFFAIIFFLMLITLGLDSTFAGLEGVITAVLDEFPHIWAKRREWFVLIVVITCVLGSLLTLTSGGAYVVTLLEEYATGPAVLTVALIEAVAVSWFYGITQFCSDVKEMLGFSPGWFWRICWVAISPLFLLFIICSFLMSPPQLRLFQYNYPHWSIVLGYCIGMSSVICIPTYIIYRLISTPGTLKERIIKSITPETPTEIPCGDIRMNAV
How it was run: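 Compounds screened at 10 μM and reported as percent inhibition of serotonin uptake. Uptake measured in a freshly prepared P2 synaptosomal fraction from rat brain.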

[3] = CHO-K1, B1R antagonism human, test substance 10 μM, Ca2+ FLIPR, CHO K1 hB1R cells, read-out: B1R Ant. h [10 μM] % Inhibition

Structure (SMILES) | inhibition at 10 µM [1, 3] | inhibition at 10 µM [2] | inhibition at 10 µM ([1]; CHO-K1, read-out: B1R Ant. h [10 μM] % Inhibition)
Cc1ccc(S(=O)(=O)N2CCC(OCC(=O)NC3CCC(C(c4cccs4)N(C)C)CC3)C2)cc1 (stereo not drawn) [Example 156, N-(4-((dimethylamino)(thiophen-2-yl)methyl)cyclohexyl)-2-(1-tosylpyrrolidin-3-yloxy)acetamide] | 5% | 87% | 
CN(C)C(c1cccs1)C1CCC(NC(=O)COCCN(C)S(=O)(=O)c2ccc(F)cc2)CC1 (stereo not drawn) [Example 10, N-(4-((dimethylamino)(thiophen-2-yl)methyl)cyclohexyl)-2-(2-(4-fluoro-N-methylphenylsulfonamido)ethoxy)acetamide] | -17% | 76% | 
COc1ccc(S(=O)(=O)N2CCC(OCC(=O)NCC3CCC(C(c4cccc(F)c4)N(C)C)CC3)C2)cc1OC (stereo not drawn) [Example 184, 2-(1-(3,4-dimethoxyphenylsulfonyl)pyrrolidin-3-yloxy)-N-((4-((dimethylamino)(3-fluorophenyl)methyl)cyclohexyl)methyl)acetamide] | -29% | 88% | 
CN(C)C(c1cccc(F)c1)C1CCC(NC(=O)COC2CCN(S(=O)(=O)c3cccc(C(F)(F)F)c3)C2)CC1 (stereo not drawn) [Example 139, N-(4-((dimethylamino)(3-fluorophenyl)methyl)cyclohexyl)-2-(1-(3-(trifluoromethyl)phenylsulfonyl)pyrrolidin-3-yloxy)acetamide] | -5% | 79% | 
CN(C)C(c1cccc(F)c1)C1CCC(CCNC(=O)COCCN(C)S(=O)(=O)c2ccc(Cl)cc2)CC1 (stereo not drawn) [Example 186, 2-(2-(4-chloro-N-methylphenylsulfonamido)ethoxy)-N-(2-(4-((dimethylamino)(3-fluorophenyl)methyl)cyclohexyl)ethyl)acetamide] | 23% | 88% | 
COc1cc(C)c(S(=O)(=O)N2CCC(OCC(=O)NCC3CCC(C(c4ccccc4)N(C)C)CC3)CC2)c(C)c1C (stereo not drawn) [Example 143, N-((4-((dimethylamino)(phenyl)methyl)cyclohexyl)methyl)-2-(1-(4-methoxy-2,3,6-trimethylphenylsulfonyl)piperidin-4-yloxy)acetamide] | 11% | 93% | 
Cc1ccc(S(=O)(=O)N2CCC(OCC(=O)NCC3CCC(C(c4cccc(F)c4)N(C)C)CC3)C2)cc1 (stereo not drawn) [Example 185, N-((4-((dimethylamino)(3-fluorophenyl)methyl)cyclohexyl)methyl)-2-(1-tosylpyrrolidin-3-yloxy)acetamide] | 9% | 102% | 
COc1cc(C)c(S(=O)(=O)N2CCCC(OCC(=O)NCC3CCC(C(c4ccccc4)N(C)C)CC3)C2)c(C)c1C (stereo not drawn) [Example 29, N-((4-((dimethylamino)(phenyl)methyl)cyclohexyl)methyl)-2-(1-(4-methoxy-2,3,6-trimethylphenylsulfonyl)piperidin-3-yloxy)acetamide] | 35% | 93% | 
CN(C)C(c1ccccc1)C1CCC(CNC(=O)COCCN(C)S(=O)(=O)c2c(Cl)cccc2Cl)CC1 (stereo not drawn) [Example 13, 2-(2-(2,6-dichloro-N-methylphenylsulfonamido)ethoxy)-N-((4-((dimethylamino)(phenyl)methyl)cyclohexyl)methyl)acetamide] | 99% | 84% | 
CN(C)C(c1cccs1)C1CCC(CCNC(=O)COCCN(C)S(=O)(=O)c2ccc(Cl)cc2Cl)CC1 (stereo not drawn) [Example 9, 2-(2-(2,4-dichloro-N-methylphenylsulfonamido)ethoxy)-N-(2-(4-((dimethylamino) (thiophen-2-yl)methyl)cyclohexyl)ethyl)acetamide] | 97% | 91% | 
Cc1ccc(S(=O)(=O)N(C)CCOCC(=O)NCC2CCC(C(c3ccccc3)N(C)C)CC2)cc1 (stereo not drawn) [Example 157, N-((4-((dimethylamino) (phenyl)methyl)cyclohexyl)methyl)-2-(2-(N,4-dimethylphenylsulfonamido)ethoxy)acetamide] | 5% | 88% | 
CN(C)C(c1cccs1)C1CCC(CCNC(=O)COC2CCN(S(=O)(=O)c3ccc(Cl)cc3Cl)C2)CC1 (stereo not drawn) [Example 21, 2-(1-(2,4-dichlorophenylsulfonyl)pyrrolidin-3-yloxy)-N-(2-(4-((dimethylamino)(thiophen-2-yl)methyl)cyclohexyl)ethyl)acetamide] | 88% | 94% | 
CN(C)C(c1cccc(F)c1)C1CCC(CNC(=O)COC2CCN(S(=O)(=O)c3cccc(C(F)(F)F)c3)C2)CC1 (stereo not drawn) [Example 170, N-((4-((dimethylamino)(3-fluorophenyl)methyl)cyclohexyl)methyl)-2-(1-(3-(trifluoromethyl)phenylsulfonyl)pyrrolidin-3-yloxy)acetamide] | 8% | 89% | 
Cc1cc(C)c(S(=O)(=O)N2CCC(OCC(=O)NCC3CCC(C(c4cccs4)N(C)C)CC3)C2)c(C)c1 (stereo not drawn) [Example 27, N-((4-((dimethylamino)(thiophen-2-yl)methyl)cyclohexyl)methyl)-2-(1-(mesitylsulfonyl)pyrrolidin-3-yloxy)acetamide] | 60% | 84% | 
CN(C)C(c1cccs1)C1CCC(NC(=O)COC2CCN(S(=O)(=O)c3cccc(C(F)(F)F)c3)C2)CC1 (stereo not drawn) [Example 11, N-(4-((dimethylamino)(thiophen-2-yl)methyl)cyclohexyl)-2-(1-(3-(trifluoromethyl)phenylsulfonyl)pyrrolidin-3-yloxy)acetamide] | -16% | 86% | 
CCN(CCOCC(=O)NC1CCC(C(c2cccc(F)c2)N(C)C)CC1)S(=O)(=O)c1c(C)cc(OC)c(C)c1C (stereo not drawn) [Example 176, N-(4-((dimethylamino)(3-fluorophenyl)methyl)cyclohexyl)-2-(2-(N-ethyl-4-methoxy-2,3,6-trimethylphenylsulfonamido)ethoxy)acetamide] | 64% | 90% | 
COc1ccc(S(=O)(=O)N2CCCCC2COCC(=O)NCC2CCC(C(c3ccccc3)N(C)C)CC2)cc1OC (stereo not drawn) [Example 150, 2-((1-(3,4-Dimethoxyphenylsulfonyl)piperidin-2-yl)methoxy)-N-((4-((dimethylamino)(phenyl)methyl)cyclohexyl)methyl)acetamide] | 4% | 94% | 
CN(C)C(c1ccccc1)C1CCC(CNC(=O)COC2CCN(S(=O)(=O)c3ccccc3)C2)CC1 (stereo not drawn) [Example 195, N-((4-((dimethylamino)(phenyl)methyl)cyclohexyl)methyl)-2-(1-(phenylsulfonyl)pyrrolidin-3-yloxy)acetamide] |  | 101% | -13%
Cc1ccc(S(=O)(=O)N2CCC(OCC(=O)NC3CCC(C(c4cccc(F)c4)N(C)C)CC3)C2)cc1 (stereo not drawn) [Example 167, N-(4-((dimethylamino)(3-fluorophenyl)methyl)cyclohexyl)-2-(1-tosylpyrrolidin-3-yloxy)acetamide] | -12% | 86% | 
COc1ccc(S(=O)(=O)N2CCC(OCC(=O)NC3CCC(C(c4cccs4)N(C)C)CC3)C2)cc1OC (stereo not drawn) [Example 155, 2-(1-(3,4-dimethoxyphenylsulfonyl)pyrrolidin-3-yloxy)-N-(4-((dimethylamino)(thiophen-2-yl)methyl)cyclohexyl)acetamide] | -8% | 87% | 
CN(C)C(c1ccccc1)C1CCC(CNC(=O)COCCN(Cc2ccccc2)S(=O)(=O)c2ccccc2)CC1 (stereo not drawn) [Example 15, 2-(2-(N-benzylphenylsulfonamido)ethoxy)-N-((4-((dimethylamino)(phenyl)methyl)cyclohexyl)methyl)acetamide] | 11% | 99% | 
COc1ccc(S(=O)(=O)N2CCC(OCC(=O)NCC3CCC(C(c4cccs4)N(C)C)CC3)C2)cc1OC (stereo not drawn) [Example 23, 2-(1-(3,4-dimethoxyphenylsulfonyl)pyrrolidin-3-yloxy)-N-((4-((dimethylamino)(thiophen-2-yl)methyl)cyclohexyl)methyl)acetamide] | -25% | 82% | 
COc1cc(C)c(S(=O)(=O)N(C)CCOCC(=O)NCCC2CCC(C(c3cccc(F)c3)N(C)C)CC2)c(C)c1C (stereo not drawn) [Example 183, N-(2-(4-((dimethylamino)(3-fluorophenyl)methyl)cyclohexyl)ethyl)-2-(2-(4-methoxy-N,2,3,6-tetramethylphenylsulfonamido)ethoxy)acetamide] | 104% | 93% | 
COc1cc(C)c(S(=O)(=O)N2CCN(CCOCC(=O)NCCC3CCC(C(c4cccc(F)c4)N(C)C)CC3)CC2)c(C)c1C (stereo not drawn) [Example 200, N-(2-(4-((dimethylamino)(3-fluorophenyl)methyl)cyclohexyl)ethyl)-2-(2-(4-(4-methoxy-2,3,6-trimethylphenylsulfonyl)piperazin-1-yl)ethoxy)acetamide] | 73% | 95% | 
